The values that follow come from patent publication US7803757B2, “Peptides based on the sequence of human lactoferrin and their use” (PharmaSurgics in Sweden AB, priority 1998, dated 2010).

Holding throughout (assay type): cell-based
The test system of one experiment is C. albicans. Briefly: MMC99% of modified peptides, C. albicans (Example 25). The following applies: BHI diluted 1/100, pH approximately 6.7-6.9 (Table 21). Here is the method: (§1) In the examples, the minimal microbicidal concentrations (MMC) and minimal inhibitory concentrations (MIC) were determined as follows, unless otherwise specified in the examples. Bacterial or fungal strains were cultured in BHI medium over night at 37° C. A volume of the culture was transferred to a new tube with BHI and incubated for two more hours. Thereafter the cells were spun down and the pellet was suspended in BHI medium diluted 1/100 (1% BHI). The concentration of bacterial or fungal cells was spectrophotometrically determined at 650 nm. The microbial concentrations were also determined by viable counts. Peptides serially diluted in 1% BHI by twofold or tenfold steps were added in triplicate to the wells of a microtiterplate (200 μl per well). The bacterial or fungal cell solutions were added in 10 μl volumes to give a final concentration of approximately 1-5×10^5 cells per ml in the well. The microplate was incubated at 37° C. in a humid chamber for two hours. Thereafter 5 μl was taken from each well and added as a drop onto a blood agar plate and incubated over night at 37° C. The microplate was incubated for another 20 hours at 37° C. and thereafter analysed spectrophotometrically at 650 nm in a microplate reader (Emax, Molecular Devices, USA). The concentration of peptide causing a 99% reduction of the inoculum after 2 hours of incubation was defined as the MMC99%. The MIC value was defined as the concentration giving no increase in the absorbance value above the background level after 20 hours of incubation.
(§2) In this example the fungicidal, and bactericidal effects of the different peptides obtained in examples 18-21 were studied. C. albicans, E. coli and S. aureus, respectively, were incubated in BHI medium diluted 1/100, with a pH of approximately 6.7-6.9. The concentration of each peptide needed to kill 99% of the microorganisms (MMC99%) was determined.

Experiment [1] deals with S. aureus. Briefly: MMC99% of modified peptides, S. aureus (Example 25). The following applies: BHI diluted 1/100, pH approximately 6.7-6.9 (Table 21). On the procedure:
as §1, §2

The test system of the next experiment is E. coli. Briefly: MMC99% of modified peptides, E. coli (Example 25). The following applies: BHI diluted 1/100, pH approximately 6.7-6.9 (Table 21). Here is the method:
as §1, §2

The subject of another experiment is C. albicans (ATCC64549). The following applies: for MIC: ATCC64549; for MMC99%: C. albicans, tested at 1, 10, 25 and 100 μg/ml of peptide. Here is the method:
as §1
(§3) C. albicans (ATCC64549) and E. coli O6, respectively, were incubated with the different peptides. The experiments were performed with 1, 10, 25 and 100 μg/ml of peptide.

Another experiment deals with E. coli O6. The following applies: for MMC99%: E. coli O6, tested at 1, 10, 25 and 100 μg/ml of peptide; for MIC: O6. Here is the method:
as §1, §3

For a further experiment, the system named is K. pneumoniae. As to the kind of experiment: killing of bacteria at fixed peptide concentration, K. pneumoniae (Example 12). The following applies: peptide 25 μg/ml. Here is the method:
(§4) In this example, the peptides according to the invention were used to study the effect on the killing of different bacteria.
(§5) The peptides were used at a concentration of 25 μg/ml.

Experiment [2] deals with S. aureus. Briefly: killing of bacteria at fixed peptide concentration, S. aureus (Example 12). The following applies: peptide 25 μg/ml. Here is the method:
as §4, §5

The test system of the next experiment is E. faecalis. As to the kind of experiment: killing of bacteria at fixed peptide concentration, E. faecalis (Example 12). The following applies: peptide 25 μg/ml. On the procedure: as §4, §5
The test system of another experiment is P. aeruginosa. Briefly: killing of bacteria at fixed peptide concentration, P. aeruginosa (Example 12). The following applies: peptide 25 μg/ml. On the procedure:
as §4, §5

Another experiment concerns S. epidermis. Briefly: killing of bacteria at fixed peptide concentration, S. epidermis (Example 12). The following applies: peptide 25 μg/ml. Here is the method: as §4, §5
Experiment [3] has as its system C. albicans yeast cells (ATCC64549). As to the kind of experiment: killing and growth inhibition of C. albicans at pH 4.5 (Example 11). On the set-up: key to C. albicans inhibition (OD650): + = no increase in OD650 is seen; − = OD650 continues to increase. The following applies: pH 4.5, 1% BHI, 25 μg/ml of the peptide; for C. albicans inhibition (OD650): OD650 after an additional 18 hours; for C. albicans killing: 99% / C. albicans killing: 100%: 2 hours. Here is the method:
C. albicans yeast cells (ATCC64549) were incubated for 2 hours at pH 4.5 in BHI medium diluted to 1% of the original concentration containing 25 µg/ml of the peptide. Thereafter the fungal solutions were cultured on blood agar plates. OD650 was measured after incubation during an additional 18 hours. The fungicidal effect of the peptides on C. albicans was determined as the ability of the peptide to kill 100% and 99%, respectively, of the fungus, while the growth inhibitory effect was determined by measuring the OD650. An inhibitory effect existed when no increase in OD650 was recorded.

Square brackets hold non-standard residues; d marks the D form. Ends that are not written are not given here. Nle = CCCC[C@H](N)C(=O)O; Orn = NCCC[C@H](N)C(=O)O Bounds are passed on as bounds.

On to “C-F-Q-W-Q-R-N-A-R-K-V-R (CFQWQRNARKVR) [SEQ. ID. NO. 75]”, for which the values for the MMC99% in the experiment on C. albicans, in the experiment on S. aureus [1] and in the experiment on E. coli were 25, 7 and 12, respectively.
The corresponding values for “C-F-Q-A-Q-R-N-M-R-K-V-R (CFQAQRNMRKVR) [SEQ. ID. NO. 71]” are 12, 14 and 25.
For orientation: MIC means the least concentration at which growth counts as inhibited. Turning to “Ac-PEATKCFQWQRNMRKVR-NH2 (N-terminus and C-terminus assumed) [Peptide 67]”, in the experiment on C. albicans (ATCC64549), the MIC is 10 µg/mL and the MMC99% was 10 µg/mL. In the experiment on E. coli O6, this substance displayed an MMC99% of 10 µg/mL and an MIC of 10 µg/mL.
As for “C-F-Q-W-Q-R-N-M-R-K-A-R (CFQWQRNMRKAR) [SEQ. ID. NO. 78]”, the figures for the MMC99% in the experiment on C. albicans, in the experiment on S. aureus [1] and with E. coli were 25, 7 and 12, respectively.
In the case of “C-F-Q-W-Q-R-E-M-R-K-V-R (CFQWQREMRKVR) [SEQ. ID. NO. 86]”, the MMC99% in the experiment with C. albicans was 25; in the experiment with S. aureus [1] it was 14; in the experiment with E. coli it was 25.
In the case of “Ac-ATKCFQWQRNMRKVR-NH2 (N-terminus and C-terminus assumed) [Peptide 63]”, in the experiment with C. albicans (ATCC64549), the MIC was 10 µg/mL and the MMC99% stood at 10 µg/mL. Also, in the experiment with E. coli O6, the MMC99% was 10 µg/mL and the MIC is 10 µg/mL.
Regarding “A-F-Q-W-Q-R-N-M-R-K-V-R (AFQWQRNMRKVR) [SEQ. ID. NO. 68]”, the MMC99% is on record as 12 in the experiment with C. albicans, 28 in the experiment with S. aureus [1] and over 25 in the experiment with E. coli.
With “C-F-Q-W-Q-R-A-M-R-K-V-R (CFQWQRAMRKVR) [SEQ. ID. NO. 74]”, the MMC99% in the experiment with C. albicans was 6; with S. aureus [1] it was 3.5; in the experiment on E. coli, 6.
For the substance “C-F-Q-W-Q-R-N-M-A-K-V-R (CFQWQRNMAKVR) [SEQ. ID. NO. 76]”, the MMC99% in the experiment with C. albicans came out at 25; in the experiment with S. aureus [1] it was 7; in the experiment with E. coli it was 25.
In the case of “C-F-Q-W-Q-R-N-L-R-K-V-R (CFQWQRNLRKVR) [SEQ. ID. NO. 82]”, the MMC99% in the experiment on C. albicans is 6; in the experiment with S. aureus [1], 7; in the experiment on E. coli, 12.
Regarding “Peptide 6: SEQ. ID. NO. 1 with X1 none, X2 none, X5 A, X7 K, X11 D, X17-25 none; 14 residues (Ac-TKAFKWQRDMRKVR)”, the “killing of bacteria: K. pneumoniae” value in the experiment on K. pneumoniae was “+ (+ = 99% of the bacteria are killed)”. Besides, the “killing of bacteria: S. aureus” value in the experiment with S. aureus [2] was “+ (+ = 99% of the bacteria are killed)”. In addition, in the experiment on E. faecalis, the “killing of bacteria: E. faecalis” value was “+ (+ = 99% of the bacteria are killed)”. Also, the “killing of bacteria: P. aeruginosa” value with P. aeruginosa is recorded as “+ (+ = 99% of the bacteria are killed)”. The “killing of bacteria: S. epidermis” value with S. epidermis is listed as “+ (+ = 99% of the bacteria are killed)”. Moreover, in [3], the “C. albicans inhibition (OD650)” value was “−”, the “C. albicans killing: 99%” value is “+ (+ = 100/99% of the bacteria are killed)” and the “C. albicans killing: 100%” value is “− (− = less than 100/99% of the bacteria are killed)”.
Consider “C-F-Q-W-Q-A-N-M-R-K-V-R (CFQWQANMRKVR) [SEQ. ID. NO. 73]”, for which the values for the MMC99% in the experiment on C. albicans, with S. aureus [1] and in the experiment with E. coli were 12, 7 and 12, respectively.
In the experiment on C. albicans (ATCC64549), “Ac-TKAFKWQRDMRKVR-NH2 (N-terminus and C-terminus assumed) [Peptide 53]” came in with an MIC of 10 µg/mL and an MMC99% of 10 µg/mL. In the experiment with E. coli O6, this substance yielded an MMC99% of 10 µg/mL and an MIC of 10 µg/mL.
With “C-F-Q-W-Q-R-N-M-R-A-V-R (CFQWQRNMRAVR) [SEQ. ID. NO. 77]”, the values for the MMC99% in the experiment with C. albicans, in the experiment on S. aureus [1] and in the experiment on E. coli were 25, 7 and 12, respectively.
Take “C-F-Q-W-Q-R-N-M-K-K-V-R (CFQWQRNMKKVR) [SEQ. ID. NO. 83]”: the MMC99% in the experiment with C. albicans is 6; in the experiment with S. aureus [1], 7; in the experiment with E. coli it was 6.
For “Peptide 62: third embodiment, comprises a cysteine; sequence only in sequence listing (ATKCFQWQRNMRKVR)”, in the experiment on K. pneumoniae, the “killing of bacteria: K. pneumoniae” value was “+ (+ = 99% of the bacteria are killed)”. For the same substance, the “killing of bacteria: S. aureus” value in the experiment on S. aureus [2] is reported as “+ (+ = 99% of the bacteria are killed)”. In addition, the “killing of bacteria: E. faecalis” value in the experiment on E. faecalis was “+ (+ = 99% of the bacteria are killed)”. Moreover, the “killing of bacteria: P. aeruginosa” value in the experiment on P. aeruginosa was “+ (+ = 99% of the bacteria are killed)”. The “killing of bacteria: S. epidermis” value in the experiment with S. epidermis is on record as “+ (+ = 99% of the bacteria are killed)”. Further, in experiment [3], the “C. albicans inhibition (OD650)” value is given as “+”, the “C. albicans killing: 99%” value is listed as “+ (+ = 100/99% of the bacteria are killed)” and the “C. albicans killing: 100%” value is “− (− = less than 100/99% of the bacteria are killed)”.
For “C-F-Q-W-Q-K-N-M-R-K-V-R (CFQWQKNMRKVR) [SEQ. ID. NO. 81]”, the MMC99% amounted to 6 with C. albicans, 7 in the experiment with S. aureus [1] and 6 in the experiment on E. coli.
Take “C-F-Q-W-E-R-N-M-R-K-V-R (CFQWERNMRKVR) [SEQ. ID. NO. 84]”: the MMC99% with C. albicans is listed as 12; in the experiment with S. aureus [1] it was 14; in the experiment with E. coli, 25.
Taken in the same sequence, the figures for “C-F-A-W-Q-R-N-M-R-K-V-R (CFAWQRNMRKVR) [SEQ. ID. NO. 70]” were 6, 7 and 6.
As to “C-A-Q-W-Q-R-N-M-R-K-V-R (CAQWQRNMRKVR) [SEQ. ID. NO. 69]”, the MMC99% in the experiment with C. albicans is reported as 12; with S. aureus [1] it was 14; with E. coli it was 12.
Take “C-F-Q-W-Q-E-N-M-R-K-V-R (CFQWQENMRKVR) [SEQ. ID. NO. 85]”: the MMC99% is over 50 with C. albicans, over 28 in the experiment with S. aureus [1] and over 25 in the experiment with E. coli.
Turning to “C-F-Q-W-Q-R-Nle-M-R-K-V-R (CFQWQR[Nle]MRKVR) [SEQ. ID. NO. 90]”, the values for the MMC99% in the experiment on C. albicans, in the experiment with S. aureus [1] and in the experiment on E. coli were 12, 3.5 and 12, respectively.
On to “C-F-Q-W-A-R-N-M-R-K-V-R (CFQWARNMRKVR) [SEQ. ID. NO. 72]”, for which the MMC99% in the experiment with C. albicans is given as 12; in the experiment on S. aureus [1], 7; in the experiment on E. coli, 12.
As to “C-F-Q-L-Q-R-N-M-R-K-V-R (CFQLQRNMRKVR) [SEQ. ID. NO. 80]”, the MMC99% turned out to be 6 in the experiment on C. albicans, 7 with S. aureus [1] and 12 in the experiment on E. coli.
With “C-F-Q-W-Q-R-N-M-R-K-V-A (CFQWQRNMRKVA) [SEQ. ID. NO. 79]”, the MMC99% with C. albicans is 25; with S. aureus [1] it was 7; in the experiment on E. coli, 12.
Regarding “C-F-Q-W-Q-R-Orn-M-R-K-V-R (CFQWQR[Orn]MRKVR) [SEQ. ID. NO. 89]”, the MMC99% in the experiment with C. albicans was found to be 6; with S. aureus [1], 3.5; with E. coli, 6.
